In patent publication US8883782B2, “Spiro-tetracyclic ring compounds as beta-secretase modulators and methods of use” (Amgen Inc., priority 2010, dated 2014):

Experiments:
[1] = target: Beta Secretase enzyme (BACE) (Homo sapiens, UniProt P56817); test: In vitro enzymatic BACE FRET (fluorescence resonance energy transfer) assay; format: biochemical; details: average IC50, enzyme assay; read-out: BACE 1 FRET assay
How it was run: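 Enzyme activity was measured at pH 4.2 (0.05 M acetate, 10% DMSO final, 100 uM genapol) by cleavage of a 50 nM quenched fluorogenic peptide. After one hour, Tris was added to neutralise the pH and fluorescence was recorded.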

[2] = test system: Aβ40 in conditioned medium of cells stably expressing Amyloid Precursor Protein (APP); test: In vitro BACE cell-based assay (Aβ40 in conditioned medium, sandwich ELISA); details: Homo sapiens, HEK293, average IC50, HEK cells; read-out: HEK cell assay
How it was run: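 The sandwich ELISA pairs pAb40 capture (3 h, 4 °C) with 6E10 detection (2 h, 4 °C) and a streptavidin-europium TRF read-out. Supernatants come from APP-expressing cells grown in 10% FBS DMEM.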

Beta Secretase enzyme (BACE), sequence (P56817 46-501, species assumed): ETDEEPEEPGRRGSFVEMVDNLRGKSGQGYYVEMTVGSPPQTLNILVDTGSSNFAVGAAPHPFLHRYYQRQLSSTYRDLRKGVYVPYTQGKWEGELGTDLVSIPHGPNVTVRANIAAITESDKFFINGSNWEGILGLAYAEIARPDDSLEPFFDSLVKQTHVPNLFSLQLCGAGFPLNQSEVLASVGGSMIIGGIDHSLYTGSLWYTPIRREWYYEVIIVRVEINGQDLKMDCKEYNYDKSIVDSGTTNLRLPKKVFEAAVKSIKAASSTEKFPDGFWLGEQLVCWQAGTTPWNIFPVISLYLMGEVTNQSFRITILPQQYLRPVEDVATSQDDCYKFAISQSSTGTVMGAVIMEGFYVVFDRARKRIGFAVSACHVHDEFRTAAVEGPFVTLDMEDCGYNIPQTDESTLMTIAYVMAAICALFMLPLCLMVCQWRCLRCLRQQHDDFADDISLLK

| SMILES | IC50 [1] [nM] | IC50 [2] [nM] |
| --- | --- | --- |
| COc1ncc(F)cc1-c1ccc2c(c1)[C@@]1(COC(N)=N1)c1cc(/C=C/C(C)(C)C)ncc1O2 [Example 407, (5S)-3-((1E)-3,3-dimethyl-1-buten-1-yl)-7-(5-fluoro-2-methoxy-3-pyridinyl)spiro[chromeno[2,3-c]pyridine-5,4′-[1,3]oxazol]-2′-amine] | 5.3 | 158 |
| COc1ncccc1-c1ccc2c(c1)[C@@]1(COC(N)=N1)c1cc(/C=C/C(C)(C)C)ncc1O2 [Example 408, (5S)-3-((1E)-3,3-dimethyl-1-buten-1-yl)-7-(2-methoxy-3-pyridinyl)spiro[chromeno[2,3-c]pyridine-5,4′-[1,3]oxazol]-2′-amine] | 20.1 | 311 |
| COC(C)(C)CNc1cc2c(cn1)Oc1ccc(-c3cccnc3)cc1[C@@]21COC(N)=N1 [Example 409, (5S)-N~3~-(2-methoxy-2-methylpropyl)-7-(3-pyridinyl)spiro[chromeno[2,3-c]pyridine-5,4′-[1,3]oxazole]-2′,3-diamine] | 6.6 | 17.8 |
| N#CC1CN(c2cc3c(cn2)Oc2ccc(-c4cccnc4)cc2[C@@]32COC(N)=N2)C1 [Example 410, 1-((5S)-2′-amino-7-(3-pyridinyl)spiro[chromeno[2,3-c]pyridine-5,4′-[1,3]oxazol]-3-yl)-3-azetidinecarbonitrile] | 28.7 | 128 |
| NC1=N[C@@]2(CO1)c1cc(-c3cccnc3)ccc1Oc1cnc(N3CC[C@@H](F)C3)cc12 [Example 411, (5S)-3-((3R)-3-fluoro-1-pyrrolidinyl)-7-(3-pyridinyl)spiro[chromeno[2,3-c]pyridine-5,4′-[1,3]oxazol]-2′-amine] | 2.3 | 4.5 |
| NC1=N[C@@]2(CO1)c1cc(-c3cccnc3)ccc1Oc1cnc(N3CC[C@H](F)C3)cc12 [Example 412, (5S)-3-((3S)-3-fluoro-1-pyrrolidinyl)-7-(3-pyridinyl)spiro[chromeno[2,3-c]pyridine-5,4′-[1,3]oxazol]-2′-amine] | 7.6 | 20.8 |
| NC1=N[C@@]2(CO1)c1cc(-c3cncc(F)c3)ccc1Oc1cnc(N3CCC(F)(F)C3)cc12 [Example 413, (5S)-3-(3,3-difluoro-1-pyrrolidinyl)-7-(5-fluoro-3-pyridinyl)spiro[chromeno[2,3-c]pyridine-5,4′-[1,3]oxazol]-2′-amine] | 0.8 | 5.6 |
| COc1ncc(-c2ccc3c(c2)[C@@]2(COC(N)=N2)c2cc(N4CCC(F)(F)C4)ncc2O3)cn1 [Example 415, (5S)-3-(3,3-difluoro-1-pyrrolidinyl)-7-(2-methoxy-5-pyrimidinyl)spiro[chromeno[2,3-c]pyridine-5,4′-[1,3]oxazol]-2′-amine] | 81.7 | 367 |
| COc1ncc(-c2ccc3c(c2)[C@@]2(COC(N)=N2)c2cc(N4CC[C@@H](F)C4)ncc2O3)cn1 [Example 417, (5S)-3-((3R)-3-fluoro-1-pyrrolidinyl)-7-(2-methoxy-5-pyrimidinyl)spiro[chromeno[2,3-c]pyridine-5,4′-[1,3]oxazol]-2′-amine] | 84.5 | 336 |
| COC(C)(C)CNc1cc2c(cn1)Oc1ccc(-c3cccnc3F)cc1[C@@]21COC(N)=N1 [Example 418, (5S)-7-(2-fluoro-3-pyridinyl)-N~3~-(2-methoxy-2-methylpropyl)spiro[chromeno[2,3-c]pyridine-5,4′-[1,3]oxazole]-2′,3-diamine] | 3 | 14.1 |
| COc1ncc(-c2ccc3c(c2)[C@@]2(COC(N)=N2)c2cc(N4CCC(F)(F)CC4)ncc2O3)cn1 [Example 419, (5S)-3-(4,4-difluoro-1-piperidinyl)-7-(2-methoxy-5-pyrimidinyl)spiro[chromeno[2,3-c]pyridine-5,4′-[1,3]oxazol]-2′-amine] | 172 | 602 |
| Cc1cnc(F)c(-c2ccc3c(c2)[C@@]2(COC(N)=N2)c2cc(N4CCC(F)(F)CC4)ncc2O3)c1 [Example 420, (5S)-3-(4,4-difluoro-1-piperidinyl)-7-(2-fluoro-5-methyl-3-pyridinyl)spiro[chromeno[2,3-c]pyridine-5,4′-[1,3]oxazol]-2′-amine] | 1.2 | 15.1 |
| Cc1cnc(F)c(-c2ccc3c(c2)[C@@]2(COC(N)=N2)c2cc(N4CCC(F)(F)C4)ncc2O3)c1 [Example 421, (5S)-3-(3,3-difluoro-1-pyrrolidinyl)-7-(2-fluoro-5-methyl-3-pyridinyl)spiro[chromeno[2,3-c]pyridine-5,4′-[1,3]oxazol]-2′-amine] | 0.5 | 5.3 |
| Cc1cnc(F)c(-c2ccc3c(c2)[C@@]2(COC(N)=N2)c2cc(-c4ccnc(F)c4)ncc2O3)c1 [Example 422, (5S)-7-(2-fluoro-5-methyl-3-pyridinyl)-3-(2-fluoro-4-pyridinyl)spiro[chromeno[2,3-c]pyridine-5,4′-[1,3]oxazol]-2′-amine] | 2.1 | 23.2 |
| NC1=N[C@@]2(CO1)c1cc(-c3ccc(N4CCC(F)(F)C4)nc3)ccc1Oc1cnc(N3CCC(F)(F)C3)cc12 [Example 423, (5S)-3-(3,3-difluoro-1-pyrrolidinyl)-7-(6-(3,3-difluoro-1-pyrrolidinyl)-3-pyridinyl)spiro[chromeno[2,3-c]pyridine-5,4′-[1,3]oxazol]-2′-amine] | 458 | 402 |
| N#Cc1cccc(-c2ccc3c(c2)[C@@]2(COC(N)=N2)c2cc(N4CCC(F)(F)CC4)ncc2O3)c1 [Example 424, 3-((5S)-2′-amino-3-(4,4-difluoro-1-piperidinyl)spiro[chromeno[2,3-c]pyridine-5,4′-[1,3]oxazol]-7-yl)benzonitrile] | 1.5 | 18 |
| N#Cc1cccc(-c2ccc3c(c2)[C@@]2(COC(N)=N2)c2cc(N4CC[C@@H](F)C4)ncc2O3)c1 [Example 425, 3-((5S)-2′-amino-3-((3R)-3-fluoro-1-pyrrolidinyl)spiro[chromeno[2,3-c]pyridine-5,4′-[1,3]oxazol]-7-yl)benzonitrile] | 0.8 | 4.8 |
| N#Cc1cccc(-c2ccc3c(c2)[C@@]2(COC(N)=N2)c2cc(N4CC[C@H](F)C4)ncc2O3)c1 [Example 426, 3-((5S)-2′-amino-3-((3S)-3-fluoro-1-pyrrolidinyl)spiro[chromeno[2,3-c]pyridine-5,4′-[1,3]oxazol]-7-yl)benzonitrile] | 3.5 | 16.8 |
| NC1=N[C@@]2(CO1)c1cc(-c3cncc(N4CCC(F)(F)C4)c3)ccc1Oc1cnc(Cl)cc12 [Example 427, (5S)-3-chloro-7-(5-(3,3-difluoro-1-pyrrolidinyl)-3-pyridinyl)spiro[chromeno[2,3-c]pyridine-5,4′-[1,3]oxazol]-2′-amine] | 640 | 610 |
| NC1=N[C@@]2(CO1)c1cc(-c3cncc(N4CC[C@H](F)C4)c3)ccc1Oc1cnc(Cl)cc12 [Example 428, (5S)-3-chloro-7-(5-((3S)-3-fluoro-1-pyrrolidinyl)-3-pyridinyl)spiro[chromeno[2,3-c]pyridine-5,4′-[1,3]oxazol]-2′-amine] | 604 | 2200 |
| NC1=N[C@@]2(CO1)c1cc(-c3cncc(N4CC[C@@H](F)C4)c3)ccc1Oc1cnc(Cl)cc12 [Example 429, (5S)-3-chloro-7-(5-((3R)-3-fluoro-1-pyrrolidinyl)-3-pyridinyl)spiro[chromeno[2,3-c]pyridine-5,4′-[1,3]oxazol]-2′-amine] | 3230 | 2210 |
| NC1=N[C@@]2(CO1)c1cc(-c3cccnc3F)ccc1Oc1cnc(N3CCCC(F)(F)C3)cc12 [Example 430, (5S)-3-(3,3-difluoro-1-piperidinyl)-7-(2-fluoro-3-pyridinyl)spiro[chromeno[2,3-c]pyridine-5,4′-[1,3]oxazol]-2′-amine] | 0.6 | 6.9 |
| COc1ccc2c(c1)C1(COC(N)=N1)c1cc(N3CCC(F)(F)C3)ncc1O2 (centres unmarked) [Example 431, 3-(3,3-difluoro-1-pyrrolidinyl)-7-methoxyspiro[chromeno[2,3-c]pyridine-5,4′-[1,3]oxazol]-2′-amine] | 1730 | 10000 |
| CC(C)(C)/C=C/c1cc2c(cn1)Oc1ccc(-c3ccc(F)nc3)cc1[C@@]21COC(N)=N1 [Example 434, (5S)-3-((1E)-3,3-dimethyl-1-buten-1-yl)-7-(6-fluoro-3-pyridinyl)spiro[chromeno[2,3-c]pyridine-5,4′-[1,3]oxazol]-2′-amine] | 3 | 31.7 |
| CC(C)N(C)c1cc2c(cn1)Oc1ccc(-c3cccnc3)cc1[C@@]21COC(N)=N1 [Example 435, (5S)-N~3~-methyl-N~3~-(1-methylethyl)-7-(3-pyridinyl)spiro[chromeno[2,3-c]pyridine-5,4′-[1,3]oxazole]-2′,3-diamine] | 5.6 | 29.6 |
| NC1=N[C@@]2(CO1)c1cc(-c3cccnc3F)ccc1Oc1cnc(N3CCC(F)CC3)cc12 [Example 436, (5S)-3-(4-fluoro-1-piperidinyl)-7-(2-fluoro-3-pyridinyl)spiro[chromeno[2,3-c]pyridine-5,4′-[1,3]oxazol]-2′-amine] | 0.6 | 8 |
| CC1(COc2ccc3c(c2)[C@@]2(COC(N)=N2)c2cc(Br)cc(F)c2O3)COC1 [Example 437, (4S)-2′-bromo-4′-fluoro-7′-((3-methyl-3-oxetanyl)methoxy)spiro[1,3-oxazole-4,9′-xanthen]-2-amine] | 202 | 1920 |
| CC1(COc2ccc3c(c2)[C@@]2(COC(N)=N2)c2cc(C4=CCOCC4)cc(F)c2O3)COC1 [Example 438, (4S)-2′-(3,6-dihydro-2H-pyran-4-yl)-4′-fluoro-7′-((3-methyl-3-oxetanyl)methoxy)spiro[1,3-oxazole-4,9′-xanthen]-2-amine] | 9 | 34.6 |
